Reference: patent US9549746B2, “Delivery device and method” (THE QUEEN'S UNIVERSITY OF BELFAST, priority 2007, dated 2017)

Assay: Delivery across full thickness murine skin in a Franz diffusion cell from drug reservoir with integrated PMVMA microneedle array
Details: reservoir 19.0 mg TMP cm^-2 attached to PMVMA microneedle array; receiver compartment followed over 25 hours; FIG. 11
Experimental: In this study, a matrix-type drug reservoir containing 19.0 mg TMP cm^−2 was prepared and attached to a poly(methylvinylether/maleic acid-co-glyceride) (PMVMA) microneedle array. This system was pressed into full thickness murine skin, mounted as the barrier membrane in a Franz diffusion cell, with the aid of gentle pressure. TMP appearing in the receiver compartment was determined by fluorescence spectroscopy over a period of 25 hours.
An identical experiment to that described in Example 3 was performed again. The only difference was that the small very water soluble photosensitiser precursor 5-aminolevulinc acid (ALA, MW 167 Da) was used instead of TMP.

## C[n+]1ccc(-c2c3nc(c(-c4cc[n+](C)cc4)c4ccc([nH]4)c(-c4cc[n+](C)cc4)c4nc(c(-c5cc[n+](C)cc5)c5ccc2[nH]5)C=C4)C=C3)cc1.Cc1ccc(S(=O)(=O)[O-])cc1.Cc1ccc(S(=O)(=O)[O-])cc1.Cc1ccc(S(=O)(=O)[O-])cc1.Cc1ccc(S(=O)(=O)[O-])cc1 [TMP, meso-Tetra (N-methyl-4-pyridyl) porphine tetra tosylate]
  delivery of TMP across full thickness skin: sustained delivery of TMP across full thickness skin is possible
